What was measured:
Experiment in all cases: relative viability (nuclei count vs DMSO), 5 days (fraction); higher = more cells survive
Selisistat + Olaparib = compound: C1CC(C2=C(C1)C3=C(N2)C=CC(=C3)Cl)C(=O)N [Selisistat] + O=C(c1cc(Cc2n[nH]c(=O)c3ccccc23)ccc1F)N1CCN(C(=O)C2CC2)CC1 [Olaparib] (partner 8 µM)
How it was run: (§1)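 Lung cancer cell lines were pin-tool dosed in 1536-well plates on the day after seeding, with either a lone drug or a fixed anchor-drug dose plus five library-drug doses (not always all listed) in √10 steps. Nuclei were counted on 4× images after 5 days. Relative viability is the ratio of treated-well to vehicle-well nuclei counts, with each value a median of duplicate plates.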

Serdemetan + Trametinib = compound: c1ccc2c(CCNc3ccc(Nc4ccncc4)cc3)c[nH]c2c1 [Serdemetan] + CC(=O)Nc1cccc(-n2c(=O)n(C3CC3)c(=O)c3c(Nc4ccc(I)cc4F)n(C)c(=O)c(C)c32)c1 [Trametinib] (partner 0.02 µM)
How it was run: as §1

Serdemetan + OSI-027 = compound: c1ccc2c(CCNc3ccc(Nc4ccncc4)cc3)c[nH]c2c1 [Serdemetan] + COc1cccc2cc(-c3nc([C@H]4CC[C@H](C(=O)O)CC4)n4ncnc(N)c34)[nH]c12 [OSI-027] (partner 0.5 µM)
How it was run: as §1

Serdemetan + Crizotinib = compound: c1ccc2c(CCNc3ccc(Nc4ccncc4)cc3)c[nH]c2c1 [Serdemetan] + C[C@@H](Oc1cc(-c2cnn(C3CCNCC3)c2)cnc1N)c1c(Cl)ccc(F)c1Cl [Crizotinib] (partner 1 µM)
How it was run: as §1

Row | Cell Line | relative viability (Selisistat + Olaparib; first compound 0.4 µM) | relative viability (Selisistat + Olaparib; first compound 1.265 µM) | relative viability (Selisistat + Olaparib; first compound 12.65 µM) | relative viability (Selisistat + Olaparib; first compound 40 µM) | relative viability (Serdemetan + Trametinib; first compound 0.04 µM) | relative viability (Serdemetan + Trametinib; first compound 0.1265 µM) | relative viability (Serdemetan + Trametinib; first compound 0.4 µM) | relative viability (Serdemetan + Trametinib; first compound 1.265 µM) | relative viability (Serdemetan + Trametinib; first compound 4 µM) | relative viability (Serdemetan + OSI-027; first compound 0.04 µM) | relative viability (Serdemetan + OSI-027; first compound 0.1265 µM) | relative viability (Serdemetan + OSI-027; first compound 0.4 µM) | relative viability (Serdemetan + OSI-027; first compound 1.265 µM) | relative viability (Serdemetan + OSI-027; first compound 4 µM) | relative viability (Serdemetan + Crizotinib; first compound 0.04 µM) | relative viability (Serdemetan + Crizotinib; first compound 0.1265 µM) | relative viability (Serdemetan + Crizotinib; first compound 1.265 µM) | relative viability (Serdemetan + Crizotinib; first compound 4 µM) | relative viability (Selisistat + Olaparib; first compound 4 µM) | relative viability (Serdemetan + Crizotinib; first compound 0.4 µM)
1 | PC-3 [JPC-3] | 1.13 | 1.1 | 1.02 | 1.07 | 0.708 | 0.634 | 0.663 | 0.67 | 0.684 | 0.83 | 0.741 | 0.58 | 0.749 | 0.831 | 0.947 | 0.94 | 1.02 | 1.03 |  | 
2 | EMC-BAC-2 | 0.577 | 0.504 | 0.371 | 0.405 | 0.833 | 0.889 | 0.886 | 0.754 | 0.719 | 0.368 | 0.383 | 0.392 | 0.268 | 0.355 | 0.727 | 0.778 | 0.5 | 0.39 | 0.676 | 0.694
3 | LK-2 | 0.721 | 0.652 | 0.588 | 0.782 | 0.697 | 0.79 | 0.809 | 0.752 | 0.757 | 0.205 | 0.23 | 0.216 | 0.193 | 0.214 | 0.217 | 0.265 | 0.204 | 0.252 | 0.675 | 0.205
4 | NCI-H2126 | 0.981 | 0.922 | 0.921 | 0.934 | 0.59 | 0.557 | 0.577 | 0.512 | 0.604 | 0.7 | 0.757 | 0.611 | 0.574 | 0.625 | 1.02 | 1.07 | 0.734 | 1 | 0.904 | 0.944
5 | NCI-H3122 | 0.661 | 0.661 | 0.556 | 0.649 | 0.246 | 0.238 | 0.252 | 0.245 | 0.206 | 0.98 | 0.949 | 0.943 | 0.322 | 0.974 | 0.292 | 0.241 |  | 0.237 |  | 0.28
6 | NCI-H1975 | 0.765 | 0.728 | 0.653 | 0.605 | 0.403 | 0.381 | 0.331 | 0.305 | 0.371 | 0.851 | 0.753 | 0.775 |  | 0.711 | 0.91 | 0.934 | 0.804 | 0.99 | 0.776 | 0.937
7 | NCI-H1299 | 1.04 | 0.972 | 1.03 | 1.02 |  |  |  |  |  |  |  |  |  |  | 0.898 | 0.947 | 0.866 | 0.716 | 1 | 0.905
8 | ABC-1 | 0.715 | 0.686 | 0.876 | 0.69 |  |  |  |  |  | 0.459 | 0.488 | 0.486 | 0.296 | 0.265 | 0.926 | 1 | 0.69 | 0.475 |  | 0.817
9 | NCI-H1793 | 1.01 | 0.935 | 0.812 | 0.912 | 0.447 | 0.375 | 0.346 | 0.227 | 0.267 | 0.385 | 0.251 | 0.236 | 0.186 | 0.179 |  |  |  |  |  | 
10 | NCI-H1648 | 0.878 | 0.792 | 0.918 | 1.2 |  | 0.534 | 0.393 | 0.317 | 0.296 |  | 0.255 | 0.335 | 0.195 | 0.256 |  |  |  |  |  | 
11 | NCI-H1563 |  |  |  |  |  |  |  |  |  | 0.747 | 0.74 | 0.732 | 0.62 | 0.614 | 0.835 | 0.786 | 0.68 | 0.704 |  | 0.77
12 | A549 | 0.439 | 0.299 | 0.324 | 0.314 |  |  |  |  |  |  |  |  |  |  | 0.807 | 0.757 | 0.578 | 0.306 | 0.267 | 0.764
13 | NCI-H522 | 0.574 | 0.766 | 0.553 | 0.519 | 0.678 | 0.698 | 0.87 | 0.702 | 0.612 | 0.814 | 0.704 | 0.887 |  | 0.712 |  |  |  |  | 0.634 | 
14 | NCI-H1623 |  |  |  |  |  |  |  |  |  | 0.457 | 0.395 | 0.359 | 0.389 | 0.395 |  |  |  |  |  | 
15 | SW 900 | 0.905 | 0.914 | 0.833 | 0.862 | 0.636 | 0.63 | 0.874 | 0.8 | 0.519 | 0.757 | 0.602 | 0.632 | 0.381 | 0.37 |  |  |  |  | 0.941 | 
16 | NCI-H1395 | 0.474 | 0.47 | 0.451 | 0.465 | 0.982 | 0.954 | 0.972 | 0.904 | 0.586 | 0.526 | 0.637 | 0.734 | 0.651 | 0.418 |  |  |  |  |  | 
17 | IA-LM | 0.899 | 0.897 | 0.802 | 0.806 |  |  |  |  |  |  |  |  |  |  | 0.898 | 0.767 | 0.465 | 0.357 | 0.849 | 0.813
18 | EBC-1 | 0.763 | 0.732 | 0.728 | 0.66 |  |  |  |  |  |  |  |  |  |  | 0.19 | 0.214 | 0.19 | 0.181 | 0.711 | 0.188

Reference: the supplement of paper PMC10307832
